In patent publication US20250122191A1, “COMPOUNDS AS BCL-2 INHIBITORS” (Fochon Biosciences, Ltd, priority 2021, published 2025) one finds IC50 data, which are given here for 11 molecules.

For orientation: IC50 means the point on the concentration scale where inhibition reaches its midpoint.

In one test the test system is Toledo cells. Briefly: Cell proliferation assay (MTS), Toledo cells. In kind it is cell-based. Conditions: Homo sapiens, 72 h. The method, then:
MTS testing kit was purchased from Promega (Madison, WI, USA). The RPMI-1640, Fetal bovine serum and Penicillin-Streptomycin were purchased from BI (Biological Industries, Beit Haemek, Israel). Dimethyl sulfoxide (DMSO) was purchased from Sigma (St. Louis., MO, USA). Toledo (ATCC catalog #: CRL-2631) cells were cultured in RPMI-1640 supplemented with Penicillin-Streptomycin and 10% FBS.
To investigate whether a compound is able to inhibit the activity of BCL-2 in cells, a mechanism-based assay using Toledo lines was developed. In this assay, the inhibition of BCL-2 was reflected by the inhibition of cell proliferation of Toledo cells. Cells were plated into 96-well plates at the optimized cell density of 30000 cells/well. Plates were incubated at 37° C., with 5% CO2 for 4 h. Compounds were serially diluted and added to the plates with the final concentrations of 10000, 3333.3, 1111.1, 370.4, 123.5, 41.2, 13.7, 4.6 and 1.5 nM. Plates were incubated at 37° C., with 5% CO2 for 72 h. 20 μl MTS was added into each well and the plates were incubated at 37° C., with 5% CO2 for exactly 2 h. The absorbance was measured by a microplate reader at 490 nm. IC50 was calculated using GraphPad Prism 5.0 software.
For the molecule `COc1cc(CN2CCC(N3CC4(CCN(c5ccc(C(=O)NS(=O)(=O)c6cnc(NC[C@H]7CC[C@](C)(O)CC7)c([N+](=O)[O-])c6)c(Oc6cc7c(F)c[nH]c7nc6OC)c5)CC4)C3)C(c3ccccc3C(C)C)C2)ccc1C1CC1` (some centres unmarked) [Example 24, 4-(2-(1-(4-cyclopropyl-3-methoxybenzyl)-3-(2-isopropylphenyl)piperidin-4-yl)-2,7-diazaspiro[3.5]nonan-7-yl)-2-((3-fluoro-6-methoxy-1H-pyrrolo[2,3-b]pyridin-5-yl)oxy)-N-((6-((((1r,4r)-4-hydroxy-4-methylcyclohexyl)methyl)amino)-5-nitropyridin-3-yl)sulfonyl)benzamide], half-maximal inhibition (IC50) required 1 nM.
On the same count and under the same terms, then `CCOc1nc2[nH]cc(F)c2cc1Oc1cc(N2CCC3(CC2)CC(N2CCN(Cc4ccc(OC)c(F)c4)C[C@H]2c2ccccc2C(C)C)C3)ccc1C(=O)NS(=O)(=O)c1cnc(NC[C@H]2CC[C@](C)(O)CC2)c([N+](=O)[O-])c1` [Example 98, 2-((6-ethoxy-3-fluoro-1H-pyrrolo[2,3-b]pyridin-5-yl)oxy)-4-(2-((R)-4-(3-fluoro-4-methoxybenzyl)-2-(2-isopropylphenyl)piperazin-1-yl)-7-azaspiro[3.5]nonan-7-yl)-N-((6-((((1r,4r)-4-hydroxy-4-methylcyclohexyl)methyl)amino)-5-nitropyridin-3-yl)sulfonyl)benzamide], with 1 nM.
On to `CCOc1nc2[nH]cc(F)c2cc1Oc1cc(N2CCC3(CC2)CC(N2CCN(C(C)C)C[C@H]2c2ccccc2C(C)C)C3)ccc1C(=O)NS(=O)(=O)c1cnc(NC[C@H]2CC[C@](C)(O)CC2)c([N+](=O)[O-])c1` [Example 100, 2-((6-ethoxy-3-fluoro-1H-pyrrolo[2,3-b]pyridin-5-yl)oxy)-N-((6-((((1r,4r)-4-hydroxy-4-methylcyclohexyl)methyl)amino)-5-nitropyridin-3-yl)sulfonyl)-4-(2-((R)-4-isopropyl-2-(2-isopropylphenyl)piperazin-1-yl)-7-azaspiro[3.5]nonan-7-yl)benzamide], for which the IC50 was determined as 1 nM.
Still for that read-out and setting: then `CCOc1nc2[nH]cc(F)c2cc1Oc1cc(N2CCC3(CC2)CC(N2CCN(Cc4cc(F)c(OC)c(F)c4)C[C@H]2c2ccccc2C(C)C)C3)ccc1C(=O)NS(=O)(=O)c1cnc(NC[C@H]2CC[C@](C)(O)CC2)c([N+](=O)[O-])c1` [Example 108, 4-(2-((R)-4-(3,5-difluoro-4-methoxybenzyl)-2-(2-isopropylphenyl)piperazin-1-yl)-7-azaspiro[3.5]nonan-7-yl)-2-((6-ethoxy-3-fluoro-1H-pyrrolo[2,3-b]pyridin-5-yl)oxy)-N-((6-((((1r,4r)-4-hydroxy-4-methylcyclohexyl)methyl)amino)-5-nitropyridin-3-yl)sulfonyl)benzamide], with 1 nM.

For another test, the system named is RS4;11-BCL-2 G101V cells. Nature of the test: Cell proliferation assay (MTS), RS4;11-BCL-2 G101V engineered cells. The format is cell-based. The settings on record: Homo sapiens, 120 h, read-out: RS4, 11 BCL2-G101V IC50. The source says:
MTS testing kit was purchased from Promega (Madison, WI, USA). The RPMI-1640, Fetal bovine serum and Penicillin-Streptomycin were purchased from BI (Biological Industries, Beit Haemek, Israel). Puromycin was purchased from Beyotime (shanghai, China). Dimethyl sulfoxide (DMSO) was purchased from Sigma (St. Louis., MO, USA). RS4;11-BCL-2 G101V (Cobioer Lot. #: CBD2021063013P4), RS4;11-BCL-2 D103E (Cobioer Lot. #: CBD2021063013P4), RS4;11-BCL-2 D103Y (Cobioer Lot. #: CBD2022012101P4) and RS4;11-BCL-2 F104L (Cobioer Lot. #: CBD2021063014P4) cells were cultured in RPMI1640 supplemented with 1 ug/mL puromycin, 100 U/mL Penicillin-Streptomycin and 10% FBS.
To investigate whether a compound is able to inhibit the activity of BCL-2 mutation in cells, a mechanism-based assay using engineered cell lines stably overexpressing BCL-2 mutation (RS4;11-BCL-2 G101V, RS4;11-BCL-2 D103E, RS4;11-BCL-2 D103Y, and RS4;11-BCL-2 F104L) was developed. In this assay, the inhibition of BCL-2 mutation was reflected by the inhibition of cell proliferation of engineered RS4;11 cells. Cells were plated into 96-well plates at optimized cell density (RS4;11-BCL-2 G101V: 5000 cells/well; RS4;11-BCL-2 D103E: 7500 cells/well; RS4;11-BCL-2 D103Y: 7500 cells/well; RS4;11-BCL-2 F104L: 5000 cells/well). Plates were incubated at 37° C., with 5% CO2 for 4 h (RS4;11-BCL-2 G101V, RS4;11-BCL-2 F104L) and 24 h (RS4;11-BCL-2 D103E, RS4;11-BCL-2 D103Y), respectively. Compounds were serially diluted and added to the plates with the final concentrations of 10000, 3333.3, 1111.1, 370.4, 123.5, 41.2, 13.7, 4.6 and 1.5 nM. Plates were incubated at 37° C., with 5% CO2 for 120 h (RS4; 11-BCL-2 G101V, RS4; 11-BCL-2 F104L) and 72 h (RS4;11-BCL-2 D103E, RS4;11-BCL-2 D103Y), respectively. 20 μl MTS was added into each well and the plates were incubated at 37° C., with 5% CO2 exactly for 2 h. The absorbance was measured by a microplate reader at 490 nm. IC50 values were calculated using GraphPad Prism 8.0 software.
For the molecule `COc1ccc(CN2CCN(C3CC4(CCN(c5ccc(C(=O)NS(=O)(=O)c6cnc(NC[C@H]7CC[C@](C)(O)CC7)c([N+](=O)[O-])c6)c(Oc6cnc7[nH]cc(F)c7c6)c5)CC4)C3)[C@H](c3ccccc3C(C)C)C2)nc1` [Example 256, 2-((3-fluoro-1H-pyrrolo[2,3-b]pyridin-5-yl)oxy)-N-((6-((((1r,4r)-4-hydroxy-4-methylcyclohexyl)methyl)amino)-5-nitropyridin-3-yl)sulfonyl)-4-(2-((R)-2-(2-isopropylphenyl)-4-((5-methoxypyridin-2-yl)methyl)piperazin-1-yl)-7-azaspiro[3.5]nonan-7-yl)benzamide], the 50% inhibitory concentration (IC50) worked out at 1 nM.
Regarding `COc1nc2[nH]cc(F)c2cc1Oc1cc(N2CCC3(CC2)CC(N2CCN(CC4CCOCC4)C[C@H]2c2ccccc2C(C)C)C3)ccc1C(=O)NS(=O)(=O)c1cnc(NC[C@H]2CC[C@](C)(O)CC2)c([N+](=O)[O-])c1` [Example 317, 2-((3-fluoro-6-methoxy-1H-pyrrolo[2,3-b]pyridin-5-yl)oxy)-N-((6-((((1r,4r)-4-hydroxy-4-methylcyclohexyl)methyl)amino)-5-nitropyridin-3-yl)sulfonyl)-4-(2-((R)-2-(2-isopropylphenyl)-4-((tetrahydro-2H-pyran-4-yl)methyl)piperazin-1-yl)-7-azaspiro[3.5]nonan-7-yl)benzamide], the IC50 came to 1 nM.
For `COc1nc2[nH]cc(F)c2cc1Oc1cc(N2CCC3(CC2)CC(N2CCN(C4CCOCC4)C[C@H]2c2ccccc2C(C)C)C3)ccc1C(=O)NS(=O)(=O)c1cnc(NC[C@H]2CC[C@](C)(O)CC2)c([N+](=O)[O-])c1` [Example 319, 2-((3-fluoro-6-methoxy-1H-pyrrolo[2,3-b]pyridin-5-yl)oxy)-N-((6-((((1r,4r)-4-hydroxy-4-methylcyclohexyl)methyl)amino)-5-nitropyridin-3-yl)sulfonyl)-4-(2-((R)-2-(2-isopropylphenyl)-4-(tetrahydro-2H-pyran-4-yl)piperazin-1-yl)-7-azaspiro[3.5]nonan-7-yl)benzamide], the IC50 was 1 nM.
For `CC(C)c1ccccc1[C@@H]1CN(C2CCC(O)CC2)CCN1C1CC2(CCN(c3ccc(C(=O)NS(=O)(=O)c4cnc(NC[C@H]5CC[C@](C)(O)CC5)c([N+](=O)[O-])c4)c(Oc4cnc5[nH]cc(F)c5c4)c3)CC2)C1` (stereo partly drawn) [Example 333, 2-((3-fluoro-1H-pyrrolo[2,3-b]pyridin-5-yl)oxy)-N-((6-((((1r,4r)-4-hydroxy-4-methylcyclohexyl)methyl)amino)-5-nitropyridin-3-yl)sulfonyl)-4-(2-((R)-4-(4-hydroxycyclohexyl)-2-(2-isopropylphenyl)piperazin-1-yl)-7-azaspiro [3.5]nonan-7-yl)benzamide], the IC50 worked out at 1 nM.
On the same count and under the same terms, under `CC(C)c1ccccc1[C@@H]1CN(Cc2ccc3c(c2)OC(F)(F)O3)CCN1C1CC2(CCN(c3ccc(C(=O)NS(=O)(=O)c4cnc(NC[C@H]5CC[C@](C)(O)CC5)c([N+](=O)[O-])c4)c(Oc4cnc5[nH]cc(F)c5c4)c3)CC2)C1` [Example 352, 4-(2-((R)-4-((2,2-difluorobenzo[d][1,3]dioxol-5-yl)methyl)-2-(2-isopropylphenyl)piperazin-1-yl)-7-azaspiro[3.5]nonan-7-yl)-2-((3-fluoro-1H-pyrrolo [2,3-b]pyridin-5-yl)oxy)-N-((6-((((1r,4r)-4-hydroxy-4-methylcyclohexyl)methyl)amino)-5-nitropyridin-3-yl)sulfonyl)benzamide] stands 1 nM; under `COc1ncc(CN2CCN(C3CC4(CCN(c5ccc(C(=O)NS(=O)(=O)c6cnc(NC[C@H]7CC[C@](C)(O)CC7)c([N+](=O)[O-])c6)c(Oc6cc7c(F)c[nH]c7nc6OC)c5)CC4)C3)[C@H](c3ccccc3C(C)C)C2)cn1` [Example 359, 2-((3-fluoro-6-methoxy-1H-pyrrolo[2,3-b]pyridin-5-yl)oxy)-N-((6-((((1r,4r)-4-hydroxy-4-methylcyclohexyl)methyl)amino)-5-nitropyridin-3-yl)sulfonyl)-4-(2-((R)-2-(2-isopropylphenyl)-4-((2-methoxypyrimidin-5-yl)methyl)piperazin-1-yl)-7-azaspiro[3.5]nonan-7-yl)benzamide], 1 nM; under `COc1ncc(CN2CCN(C3CC4(CCN(c5ccc(C(=O)NS(=O)(=O)c6cnc(NC[C@H]7CC[C@](C)(O)CC7)c([N+](=O)[O-])c6)c(Oc6cnc7[nH]cc(F)c7c6)c5)CC4)C3)[C@H](c3ccccc3C(C)C)C2)cn1` [Example 360, 2-((3-fluoro-1H-pyrrolo[2,3-b]pyridin-5-yl)oxy)-N-((6-((((1r,4r)-4-hydroxy-4-methylcyclohexyl)methyl)amino)-5-nitropyridin-3-yl)sulfonyl)-4-(2-((R)-2-(2-isopropylphenyl)-4-((2-methoxypyrimidin-5-yl)methyl)piperazin-1-yl)-7-azaspiro[3.5]nonan-7-yl)benzamide], 1 nM.
